Experimental data as given in ChEMBL document CHEMBL5550206, “Identification of 6-Fluorine-Substituted Coumarin Analogues as POLRMT Inhibitors with High Potency and Safety for Treatment of Pancreatic Cancer” (J Med Chem, 2024).
Active and inactive are the calls of the source. The rule behind the calls is not given here.

Legend:
MIA PaCa-2 [1] = experiment: Inhibition of colony formation in human MIA PaCa-2 cells at 5 to 200 nM incubated for 14 days by crystal violet staining based assay; format: functional, cell-based; details: dose 5-200 nM, time 14.0 day
MIA PaCa-2 [2] = experiment: Induction of senescence in human MIA PaCa-2 cells at 50 to 1000 nM measured after 96 hrs by beta-galactosidase staining based assay; format: functional, cell-based; details: dose 50-1000 nM
MIA PaCa-2 [3] = experiment: Induction of cell arrest in human MIA PaCa-2 cells assessed as accumulation of cells at S phase at 50 nM measured after 96 hrs by PI staining based flow cytometry (reference value: 16.8%); format: functional
MIA PaCa-2 [4] = experiment: Induction of cell arrest in human MIA PaCa-2 cells assessed as viable cells at 50 nM measured after 4 days by Annexin V-FITC and propidium iodide (PI) staining based assay (reference value: 94.9%); format: functional; details: MIA PaCa-2, 96 h, time 4 day, read-out: Activity
MIA PaCa-2 [5] = experiment: Induction of cell arrest in human MIA PaCa-2 cells assessed as accumulation of cells at G2 phase at 100 nM measured after 96 hrs by PI staining based flow cytometry (reference value: 11.2%); format: functional
[6] = Toxicity in BALB/c mouse xenografted with human MIA PaCa-2 cells assessed as pathological change in lung at 25 to 100 mg/kg, iv once daily for 25 consecutive day after 2 weeks of cells injection by H and E staining based optical microscopic analysis; format: organism-based; details: in vivo, 336 h, dose 25-100 mg/kg
MIA PaCa-2 [7] = experiment: Induction of cell arrest in human MIA PaCa-2 cells assessed as accumulation of cells at S phase at 25 nM measured after 96 hrs by PI staining based flow cytometry (reference value: 16.8%); format: functional
MIA PaCa-2 [8] = experiment: Induction of intracellular ROS generation in human MIA PaCa-2 cells at 0.1 to 5 uM incubated for 96 hrs by DCFH-DA staining based flow cytometry; format: functional, cell-based; details: dose 0.1-5 µM
MIA PaCa-2 [9] = experiment: Induction of cell arrest in human MIA PaCa-2 cells assessed as accumulation of cells at G1 phase at 25 nM measured after 96 hrs by PI staining based flow cytometry (reference value: 64%); format: functional
MIA PaCa-2 [10] = experiment: Effect on SDHB protein complexes in human MIA PaCa-2 cells reduction in NDUFB8 protein level at 0.01 to 10 uM by Western blot analysis; format: functional, cell-based; details: dose 0.01-10 µM
MIA PaCa-2 [11] = experiment: Induction of cell arrest in human MIA PaCa-2 cells assessed as late apoptotic cells at 500 nM measured after 4 days by Annexin V-FITC and propidium iodide (PI) staining based assay (reference value: 3.23%); format: functional; details: time 4 day
MIA PaCa-2 [12] = experiment: Induction of cell arrest in human MIA PaCa-2 cells assessed as accumulation of cells at S phase at 200 nM measured after 96 hrs by PI staining based flow cytometry (reference value: 16.8%); format: functional
[13] = Toxicity in BALB/c mouse xenografted with human MIA PaCa-2 cells assessed as pathological change in kidney at 25 to 100 mg/kg, iv once daily for 25 consecutive day after 2 weeks of cells injection by H and E staining based optical microscopic analysis; format: organism-based; details: in vivo, 336 h, dose 25-100 mg/kg

**Q.** For `CCN(CC)C(=O)[C@@H](C)Oc1cc2oc(=O)cc(-c3ccccc3C)c2cc1F`, which inhibition (MIA PaCa-2 [1]) is on record?
**A.** The inhibition was “Active”.

**Q.** And the Activity (MIA PaCa-2 [2])?
**A.** The Activity was “inactive”.

**Q.** And the Activity (MIA PaCa-2 [3])?
**A.** Its Activity is 15.4%.

**Q.** What about the viability at 0.05 µM (MIA PaCa-2 [4]) of the same compound?
**A.** Its viability at 0.05 µM is 94.1%.

**Q.** What about the Activity (MIA PaCa-2 [5]) of the same compound?
**A.** Its Activity is 11.3%.

**Q.** What about the Activity [6] of the same compound?
**A.** The Activity was “Non-Toxic”.

**Q.** And the Activity (MIA PaCa-2 [7])?
**A.** The Activity was 14.2%.

**Q.** And the Activity (MIA PaCa-2 [8])?
**A.** Its Activity is “inactive”.

**Q.** And the Activity (MIA PaCa-2 [9])?
**A.** Its Activity is 65.5%.

**Q.** What about the Activity (MIA PaCa-2 [10]) of the same compound?
**A.** Its Activity is “inactive”.

**Q.** And the Activity (MIA PaCa-2 [11])?
**A.** Its Activity is 3.69%.

**Q.** And the Activity (MIA PaCa-2 [12])?
**A.** The Activity was 17%.

**Q.** What about the Activity [13] of the same compound?
**A.** The Activity was “Non-Toxic”.
